From ChEMBL document CHEMBL4673260, “Pyridine alkaloids with activity in the central nervous system” (Bioorg Med Chem, 2020)
pEC50, pIC50, pKi: −log10 of the molar value.

How the values were obtained:
[1] = Neuroprotective activity against Bay-K8644-induced calcium mobilization in rat forebrain derived neurons assessed as calcium elevation at 100 nM (reference value: 521 nM); format: functional, Neuron
[2] = Neuroprotective activity against glutamate-induced calcium mobilization in rat forebrain derived neurons assessed as calcium elevation at 100 nM (reference value: 811 nM); format: functional, Neuron
[3] = Neuroprotective activity against NMDA-induced cell death in rat neurons assessed as cell survival pretreated for 45 mins followed by NMDA stimulation and measured after 30 mins by MTT assay (reference value: […]%); format: functional, Neuron; settings: time 75 min; 1.25 h
[4] = Toxicity in male rat; settings: in vivo
[5] = Toxicity in female rat; settings: in vivo
[6] = Neuroprotective activity against glutamate-induced cell death in rat forebrain derived neurons assessed as neuron death at 100 nM incubated for 45 mins (reference value: 55%); format: functional; settings: 0.75 h
Cholinesterase [7] = target: Cholinesterase (Homo sapiens, UniProt P06276); assay: Inhibition of BuChE (unknown origin)
Acetylcholinesterase [8] = target: T1, Acetylcholinesterase (Homo sapiens, UniProt P22303)
T1 sequence (P22303 whole entry): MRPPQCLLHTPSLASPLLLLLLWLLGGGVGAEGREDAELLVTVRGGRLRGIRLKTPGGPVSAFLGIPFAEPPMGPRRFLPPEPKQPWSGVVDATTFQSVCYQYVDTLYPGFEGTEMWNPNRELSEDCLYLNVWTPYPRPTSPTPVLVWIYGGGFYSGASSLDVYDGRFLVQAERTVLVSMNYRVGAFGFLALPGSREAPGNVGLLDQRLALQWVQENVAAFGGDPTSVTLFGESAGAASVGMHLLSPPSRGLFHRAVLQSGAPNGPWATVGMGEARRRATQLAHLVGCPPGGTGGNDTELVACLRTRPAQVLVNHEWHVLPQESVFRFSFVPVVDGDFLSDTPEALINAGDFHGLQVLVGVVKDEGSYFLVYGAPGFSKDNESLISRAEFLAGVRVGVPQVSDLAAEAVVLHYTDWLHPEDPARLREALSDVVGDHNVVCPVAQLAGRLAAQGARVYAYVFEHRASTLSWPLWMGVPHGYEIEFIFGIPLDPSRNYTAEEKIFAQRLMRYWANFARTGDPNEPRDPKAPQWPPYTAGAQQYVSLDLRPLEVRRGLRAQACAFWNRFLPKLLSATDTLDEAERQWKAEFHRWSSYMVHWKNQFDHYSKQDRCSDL

[9] = target: T2, Neuronal acetylcholine receptor; alpha4/beta2 (Homo sapiens, UniProt P17787+P43681)
T2 sequence (P17787 whole entry): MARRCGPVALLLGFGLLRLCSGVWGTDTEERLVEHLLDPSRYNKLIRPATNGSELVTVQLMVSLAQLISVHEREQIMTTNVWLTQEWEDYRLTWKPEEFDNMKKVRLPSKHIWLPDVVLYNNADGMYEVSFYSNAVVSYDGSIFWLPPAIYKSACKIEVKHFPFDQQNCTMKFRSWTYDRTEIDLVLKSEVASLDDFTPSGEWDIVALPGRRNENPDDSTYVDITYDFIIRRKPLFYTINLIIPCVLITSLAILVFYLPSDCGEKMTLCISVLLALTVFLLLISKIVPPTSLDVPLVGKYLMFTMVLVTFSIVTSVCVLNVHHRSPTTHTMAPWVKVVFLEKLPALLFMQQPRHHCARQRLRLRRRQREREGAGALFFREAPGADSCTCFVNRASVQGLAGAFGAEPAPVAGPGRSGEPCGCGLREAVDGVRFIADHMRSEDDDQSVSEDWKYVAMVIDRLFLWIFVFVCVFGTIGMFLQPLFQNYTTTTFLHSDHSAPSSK
T2 sequence (P43681 whole entry): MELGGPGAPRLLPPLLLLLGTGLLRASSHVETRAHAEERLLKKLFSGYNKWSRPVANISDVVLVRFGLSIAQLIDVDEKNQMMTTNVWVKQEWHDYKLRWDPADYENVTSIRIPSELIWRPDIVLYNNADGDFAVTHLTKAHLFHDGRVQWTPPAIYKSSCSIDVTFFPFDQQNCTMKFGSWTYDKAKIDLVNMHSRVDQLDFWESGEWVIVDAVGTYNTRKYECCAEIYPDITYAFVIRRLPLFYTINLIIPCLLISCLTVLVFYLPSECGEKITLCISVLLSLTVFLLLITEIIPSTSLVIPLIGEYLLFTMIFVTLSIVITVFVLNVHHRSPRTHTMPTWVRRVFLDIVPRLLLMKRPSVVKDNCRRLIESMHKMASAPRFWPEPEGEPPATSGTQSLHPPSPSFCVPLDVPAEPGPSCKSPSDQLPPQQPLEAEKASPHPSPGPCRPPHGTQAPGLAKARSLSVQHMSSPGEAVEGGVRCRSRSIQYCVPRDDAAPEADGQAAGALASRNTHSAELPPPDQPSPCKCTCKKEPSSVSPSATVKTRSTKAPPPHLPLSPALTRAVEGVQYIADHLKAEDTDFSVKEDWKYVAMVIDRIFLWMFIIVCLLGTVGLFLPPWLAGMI

[10] = target: T2, Neuronal acetylcholine receptor; alpha4/beta2; remark: listed apart in the source
[11] = target: T2, Neuronal acetylcholine receptor; alpha4/beta2; assay: Potency index, ratio of nicotine Ki to test compound Ki for Displacement of [3H]cytisine from human alpha4beta2 nAChR by Cheng-Prusoff equation analysis; format: protein-complex assay
[12] = target: T2, Neuronal acetylcholine receptor; alpha4/beta2; assay: Potency index, ratio of nicotine IC50 to test compound IC50 for Displacement of [3H]cytisine from human alpha4beta2 nAChR by radioligand competition analysis; format: protein-complex assay
Acetylcholinesterase [13] = target: T1, Acetylcholinesterase; assay: Inhibition of human erythrocyte acetylcholinesterase using acetylthiocholine as substrate preincubated for 20 mins followed by substrate addition and measured every 30 secs for 1 hr by Ellman's method
[14] = Selectivity ratio of Ki for horse serum BuChE to Ki for human erythrocyte acetylcholinesterase
Cholinesterase [15] = target: Cholinesterase (Equus caballus, UniProt P81908); assay: Inhibition of horse serum BuChE by Ellman's colorimetric method
Cholinesterase (Equus caballus, UniProt P81908), sequence (P81908 whole entry): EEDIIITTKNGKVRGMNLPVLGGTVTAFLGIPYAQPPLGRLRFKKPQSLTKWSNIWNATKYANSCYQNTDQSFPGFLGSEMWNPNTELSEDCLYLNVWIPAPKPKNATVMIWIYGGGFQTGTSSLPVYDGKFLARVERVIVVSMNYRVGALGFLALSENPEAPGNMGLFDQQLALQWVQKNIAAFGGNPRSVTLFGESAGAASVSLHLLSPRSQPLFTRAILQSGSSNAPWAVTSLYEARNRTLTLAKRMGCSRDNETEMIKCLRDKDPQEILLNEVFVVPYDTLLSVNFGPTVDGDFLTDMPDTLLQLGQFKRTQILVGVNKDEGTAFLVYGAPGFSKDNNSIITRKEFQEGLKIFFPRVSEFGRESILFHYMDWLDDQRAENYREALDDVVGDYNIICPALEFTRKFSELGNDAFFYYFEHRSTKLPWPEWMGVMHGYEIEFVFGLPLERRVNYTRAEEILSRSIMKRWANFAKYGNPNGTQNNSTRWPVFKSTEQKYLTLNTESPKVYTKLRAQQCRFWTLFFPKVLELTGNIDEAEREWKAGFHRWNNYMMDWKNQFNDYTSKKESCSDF

Acetylcholinesterase [16] = target: T1, Acetylcholinesterase; assay: Inhibition of human erythrocyte acetylcholinesterase using acetylthiocholine as substrate by Ellman's colorimetric method
[17] = target: Neuronal acetylcholine receptor subunit alpha-7 (Rattus norvegicus, UniProt Q05941); assay: Agonist activity at rat alpha7 nAChR expressed in Xenopus laevis oocytes; format: cell-based, Oocyte
Neuronal acetylcholine receptor subunit alpha-7, sequence (Q05941 whole entry): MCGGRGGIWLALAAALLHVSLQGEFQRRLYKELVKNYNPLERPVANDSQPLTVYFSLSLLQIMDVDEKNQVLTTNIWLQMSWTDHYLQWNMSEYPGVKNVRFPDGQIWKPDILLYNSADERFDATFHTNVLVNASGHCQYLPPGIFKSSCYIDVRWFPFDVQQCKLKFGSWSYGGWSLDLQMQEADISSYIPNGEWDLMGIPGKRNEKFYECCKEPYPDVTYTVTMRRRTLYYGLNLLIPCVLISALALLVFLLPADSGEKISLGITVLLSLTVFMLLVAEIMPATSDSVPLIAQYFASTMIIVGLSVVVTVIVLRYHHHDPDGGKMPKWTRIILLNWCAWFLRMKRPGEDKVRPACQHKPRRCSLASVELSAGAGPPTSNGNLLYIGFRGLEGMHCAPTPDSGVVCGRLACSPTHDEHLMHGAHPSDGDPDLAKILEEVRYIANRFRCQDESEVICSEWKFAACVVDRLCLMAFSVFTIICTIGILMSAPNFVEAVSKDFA

[18] = target: Neuronal acetylcholine receptor; alpha3/beta4 (Rattus norvegicus, UniProt P04757+P12392); assay: Agonist activity at rat alpha3beta4 nAChR expressed in Xenopus laevis oocytes; format: cell-based, Oocyte
Neuronal acetylcholine receptor; alpha3/beta4, sequence (P04757 whole entry): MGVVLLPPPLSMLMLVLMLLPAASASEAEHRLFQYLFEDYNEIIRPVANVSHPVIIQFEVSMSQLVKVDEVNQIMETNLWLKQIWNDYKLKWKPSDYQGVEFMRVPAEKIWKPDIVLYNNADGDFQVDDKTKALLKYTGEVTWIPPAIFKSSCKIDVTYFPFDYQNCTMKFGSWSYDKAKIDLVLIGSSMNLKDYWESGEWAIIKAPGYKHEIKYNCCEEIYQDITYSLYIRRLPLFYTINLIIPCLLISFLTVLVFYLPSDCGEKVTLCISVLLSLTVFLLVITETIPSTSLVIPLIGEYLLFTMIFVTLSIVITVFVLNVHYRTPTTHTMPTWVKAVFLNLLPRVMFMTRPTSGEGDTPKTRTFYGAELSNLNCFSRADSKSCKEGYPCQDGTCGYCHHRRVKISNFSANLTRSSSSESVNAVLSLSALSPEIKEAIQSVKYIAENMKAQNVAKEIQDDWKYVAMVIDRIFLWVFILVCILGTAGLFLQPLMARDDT
Neuronal acetylcholine receptor; alpha3/beta4, sequence (P12392 whole entry): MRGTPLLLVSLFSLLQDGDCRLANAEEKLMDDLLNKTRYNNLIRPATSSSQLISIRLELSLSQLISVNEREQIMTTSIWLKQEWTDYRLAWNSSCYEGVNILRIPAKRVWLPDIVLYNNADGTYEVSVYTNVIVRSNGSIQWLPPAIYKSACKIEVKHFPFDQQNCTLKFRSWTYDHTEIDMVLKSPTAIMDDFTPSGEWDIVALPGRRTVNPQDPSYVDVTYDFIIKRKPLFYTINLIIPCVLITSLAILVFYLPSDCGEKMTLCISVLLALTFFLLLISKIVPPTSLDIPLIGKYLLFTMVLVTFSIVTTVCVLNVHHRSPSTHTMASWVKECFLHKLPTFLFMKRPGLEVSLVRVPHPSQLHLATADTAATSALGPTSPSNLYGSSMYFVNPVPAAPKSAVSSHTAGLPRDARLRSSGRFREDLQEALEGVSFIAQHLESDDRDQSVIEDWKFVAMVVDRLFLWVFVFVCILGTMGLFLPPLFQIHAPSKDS

[19] = target: Neuronal acetylcholine receptor; alpha4/beta2 (Rattus norvegicus, UniProt P09483+P12390); assay: Inhbition of [3H] nicotine binding to rat brain alpha4beta2 nAChR by Cheng-Prusoff equation analysis
Neuronal acetylcholine receptor; alpha4/beta2 (Rattus norvegicus, UniProt P09483+P12390), sequence (P09483 whole entry): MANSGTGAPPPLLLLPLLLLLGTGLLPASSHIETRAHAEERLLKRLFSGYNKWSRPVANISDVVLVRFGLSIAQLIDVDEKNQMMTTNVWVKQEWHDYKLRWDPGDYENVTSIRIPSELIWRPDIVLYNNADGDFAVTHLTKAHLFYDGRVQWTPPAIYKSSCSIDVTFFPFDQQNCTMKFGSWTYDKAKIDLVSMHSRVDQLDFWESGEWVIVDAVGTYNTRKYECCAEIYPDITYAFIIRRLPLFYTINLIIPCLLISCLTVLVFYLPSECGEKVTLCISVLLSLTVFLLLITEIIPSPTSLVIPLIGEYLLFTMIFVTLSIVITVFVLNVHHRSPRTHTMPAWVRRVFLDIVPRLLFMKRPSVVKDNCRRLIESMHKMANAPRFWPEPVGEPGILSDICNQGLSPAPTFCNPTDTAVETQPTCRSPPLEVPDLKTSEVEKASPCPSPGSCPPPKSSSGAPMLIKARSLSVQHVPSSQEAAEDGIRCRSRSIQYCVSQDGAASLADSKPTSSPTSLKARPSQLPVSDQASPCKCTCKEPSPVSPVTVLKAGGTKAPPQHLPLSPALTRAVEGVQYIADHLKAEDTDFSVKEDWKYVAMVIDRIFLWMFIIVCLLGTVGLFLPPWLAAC
Neuronal acetylcholine receptor; alpha4/beta2 (Rattus norvegicus, UniProt P09483+P12390), sequence (P12390 whole entry): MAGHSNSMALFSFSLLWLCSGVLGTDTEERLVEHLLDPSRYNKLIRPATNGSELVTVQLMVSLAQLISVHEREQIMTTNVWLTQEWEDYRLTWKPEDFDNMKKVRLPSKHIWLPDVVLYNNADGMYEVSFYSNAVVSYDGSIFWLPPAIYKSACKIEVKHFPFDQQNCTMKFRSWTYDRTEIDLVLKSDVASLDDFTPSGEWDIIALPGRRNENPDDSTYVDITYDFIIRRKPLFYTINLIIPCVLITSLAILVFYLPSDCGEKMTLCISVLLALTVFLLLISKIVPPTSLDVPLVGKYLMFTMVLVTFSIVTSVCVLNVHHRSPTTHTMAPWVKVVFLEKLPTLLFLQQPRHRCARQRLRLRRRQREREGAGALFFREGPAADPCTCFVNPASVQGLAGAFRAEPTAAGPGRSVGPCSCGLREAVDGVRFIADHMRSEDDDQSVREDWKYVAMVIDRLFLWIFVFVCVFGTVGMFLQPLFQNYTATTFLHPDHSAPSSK

Rattus norvegicus [20] = species on record: Rattus norvegicus; assay: Antagonist activity at nAChR in Sprague-Dawley rat striatum assessed as inhibition of nicotine-evoked [3H] dopamine release at 100 nM relative to control; format: tissue-based
[21] = In vivo inhibition of DBH in rat assessed as norepinephrine expression in rat brain at 100 mg/kg, ip administered as single dose measured after 3 hrs by spectrophotofluorometric analysis (reference value: 0.22 ug/g); format: functional, organism-based
[22] = target: T3, Dopamine beta-hydroxylase (Bos taurus) (UniProt P15101); assay: Inhibition of bovine adrenal medulla DBH at 0.005 uM relative to control
T3 sequence (whole entry): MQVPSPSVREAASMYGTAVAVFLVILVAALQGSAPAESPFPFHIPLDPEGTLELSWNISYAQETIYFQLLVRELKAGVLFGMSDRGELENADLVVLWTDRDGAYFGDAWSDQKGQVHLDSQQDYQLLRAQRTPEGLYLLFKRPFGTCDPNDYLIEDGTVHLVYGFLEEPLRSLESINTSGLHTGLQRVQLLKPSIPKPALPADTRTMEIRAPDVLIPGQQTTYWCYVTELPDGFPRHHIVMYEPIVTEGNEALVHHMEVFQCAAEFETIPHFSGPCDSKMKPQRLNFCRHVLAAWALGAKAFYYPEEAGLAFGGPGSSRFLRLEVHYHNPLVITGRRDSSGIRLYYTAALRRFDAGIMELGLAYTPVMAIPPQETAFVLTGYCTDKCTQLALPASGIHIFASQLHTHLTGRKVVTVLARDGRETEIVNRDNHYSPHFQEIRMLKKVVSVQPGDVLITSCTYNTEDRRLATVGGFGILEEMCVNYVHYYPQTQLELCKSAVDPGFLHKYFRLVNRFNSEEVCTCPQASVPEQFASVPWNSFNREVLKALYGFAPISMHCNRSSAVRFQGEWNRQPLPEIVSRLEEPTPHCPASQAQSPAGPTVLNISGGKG

[23] = target: Dopamine beta-hydroxylase (Bos taurus, UniProt P15101); assay: Inhibition of bovine adrenal medulla DBH incubated for 25 mins
[24] = target: T3, Dopamine beta-hydroxylase (Bos taurus); assay: Inhibition of bovine adrenal medulla DBH at 0.05 uM relative to control
[25] = In vivo inhibition of DBH in human assessed as reduction in 3-methoxy-4-hydroxy-phenylglycol level in cerebrospinal fluid at 1.12g administered for 10 to 20 days; format: functional; settings: time 10-20 day
[26] = In vivo inhibition of DBH in rat assessed as norepinephrine expression in rat brain at 100 mg/kg, ip administered as single dose measured after 3 hrs by spectrophotofluorometric analysis (reference value: 0.42 ug/g); format: functional, organism-based
[27] = target: T3, Dopamine beta-hydroxylase (Bos taurus); assay: Inhibition of bovine adrenal medulla DBH at 1 uM relative to control
[28] = target: T3, Dopamine beta-hydroxylase (Bos taurus); assay: Inhibition of bovine adrenal medulla DBH at 0.5 uM relative to control
[29] = target: T2, Neuronal acetylcholine receptor; alpha4/beta2; assay: Potency index, ratio of nicotine EC50 to compound EC50 for human brain alpha4beta2 nAChR expressed in CHO cells; format: cell-based
[30] = target: T2, Neuronal acetylcholine receptor; alpha4/beta2; assay: Agonist activity at human brain alpha4beta2 nAChR expressed in CHO cells assessed as maximal receptor response by patch clamp electrophysiological assay relative to control; format: cell-based
[31] = target: T2, Neuronal acetylcholine receptor; alpha4/beta2; remark: listed apart in the source
Description: Agonist activity at human brain alpha4beta2 nAChR expressed in CHO cells by patch clamp electrophysiological assay

[32] = target: T2, Neuronal acetylcholine receptor; alpha4/beta2; assay: Potency index, ratio of nicotine I-max to compound I-max for human brain alpha4beta2 nAChR expressed in CHO cells; format: cell-based
Rattus norvegicus [33] = assay: Antihypertensive activity in spontaneously hypertensive rat assessed as reduction in blood pressure at 50 mg/kg, po measured after 5 hr relative to control; format: functional; parameters: scale not given: the % may be the effect or the level left
Rattus norvegicus [34] = assay: Antihypertensive activity in spontaneously hypertensive rat assessed as reduction in blood pressure at 50 mg/kg, po measured after 1 hr relative to control; format: functional; parameters: scale not given: the % may be the effect or the level left
[35] = Toxicity in ip dosed mouse; format: organism-based; settings: in vivo
Rattus norvegicus [36] = assay: Antihypertensive activity in spontaneously hypertensive rat assessed as reduction in blood pressure at 50 mg/kg, po measured after 3 hrs relative to control; format: functional; parameters: scale not given: the % may be the effect or the level left

C/C=C1\[C@H]2C=C(C)C[C@]1(N)c1ccc(=O)[nH]c1C2 [HUPERZINE A]
Activity [1]: 505 nM
Activity [2]: 668 nM
Activity [3]: 85%
LD50 [4]: > 4 mg/kg
LD50 [5]: 2 mg/kg
Activity [6]: 30%

CC1=C[C@@H]2Cc3[nH]c(=O)ccc3[C@]3(C1)NCCC[C@H]23
pIC50 (Cholinesterase [7]): 3.77
pIC50 (Acetylcholinesterase [8]): 5.59

C[C@@H]1CC2C3Cn4c(cccc4=O)C(CN2C)C31 (stereo partly specified)
pIC50 [9]: 9.02
pKi [10]: 9.49
Ratio Ki [11]: 5
Ratio IC50 [12]: 5

C/C=C1\C2C=C(C)CC1(NCC(=O)OC)c1ccc(=O)[nH]c1C2 (stereo unspecified)
pIC50 (Acetylcholinesterase [13]): 5.17

CN1CCCC[C@H]1c1ccc(-c2cccnc2)nc1
Ratio Ki [14]: 8.6
pKi (Cholinesterase [15]): 3.36
pKi (Acetylcholinesterase [16]): 4.29

c1cncc([C@@H]2CCCN2)c1 [NORNICOTINE]
pEC50 [17]: 4.76
pEC50 [18]: 3.21

CN1CCC[C@H]1c1cncc([C@@H]2CCCN2C)c1
pKi [19]: 5.93
inhibition (Rattus norvegicus [20]): < 64%

CCCCc1ccc(C(=O)O)nc1 [FUSARIC ACID]
IC50 [21]: 0.1 µg/g
inhibition [22]: 20%
pIC50 [23]: 7.30
inhibition [24]: 58%
inhibition (INH) [25]: 25%
IC50 [26]: 0.4 µg/g
inhibition [27]: 92%
inhibition [28]: 89%

CN1CC=CC[C@H]1c1cccnc1
Ratio EC50 [29]: 8
Imax [30]: 26%
pEC50 [31]: 5.21
Ratio [32]: 6

O=C(O)c1ccc(Cc2ccc(O)cc2)cn1
Activity (Rattus norvegicus [33]): 23%
Activity (Rattus norvegicus [34]): 21%
LD50 [35]: 350 mg/kg
Activity (Rattus norvegicus [36]): 16%
